Source: patent publication US20230132526A1 (Institute of Materia Medica, Chinese Academy of Medical …, priority 2020, published 2023)

How the values were obtained:
phosphorylated Akt = assay: Level of phosphorylated Akt by western blotting in primary mouse hepatocytes treated with EphB4 inhibitor; assay type: cell-based; details: LCA 10 μM and 20 μM overnight, 10 nM insulin 20 min before collection, western blotting (FIG. 2C)
Method: After the liver tissue was fully digested, it was suspended with DMEM medium, flew through a cell sieve with a diameter of 70 μm, and was centrifugated, thereby the primary hepatocytes were obtained. The cells were resuspended in complete culture medium and dispersed into a petri dish or plate. After the cells were attached, they were treated with LCA (10 μM and 20 μM) overnight.

flag-InsR = assay: Protein level of flag-InsR by Western blotting in HEK293T cells co-expressing insulin receptor and EphB4, treated with degradation pathway inhibitors; assay type: cell-based; details: HEK293T cells co-expressing flag-InsR and EphB4-HA; ammonium chloride 5 mM, chloroquine 10 μM, 8 h; Western blotting (FIG. 2B)
Method: GFP was co-transfected as a reference for foreign proteins. The cells were treated with proteasome degradation pathway inhibitor MG132 (10 μM), lysosome degradation pathway inhibitor ammonium chloride (5 mM) and chloroquine (10 μM) for 8 h.

Structure (SMILES): C[C@H](CCC(=O)O)[C@H]1CC[C@H]2[C@@H]3CC[C@@H]4C[C@H](O)CC[C@]4(C)[C@H]3CC[C@]12C [LCA, 3α-hydroxy-5β-cholanoic acid]
- level of phosphorylated Akt (phosphorylated Akt): increase the level of phosphorylated Akt

Structure (SMILES): CCN(CC)CCCC(C)Nc1ccnc2cc(Cl)ccc12 (stereo not drawn) [chloroquine]
- protein level of flag-InsR (effect on EphB4-promoted insulin receptor degradation) (flag-InsR): partially rescue the promoting effect of EphB4 on insulin receptor degradation to some extent

Structure (SMILES): Cl.N [ammonium chloride, Ammonium chloride]
- protein level of flag-InsR (effect on EphB4-promoted insulin receptor degradation) (flag-InsR): partially rescue the promoting effect of EphB4 on insulin receptor degradation to some extent
